Here are results for five compounds from ChEMBL document CHEMBL1201862, “PubChem BioAssay data set” (2004).

Active and inactive are the calls of the source.

Assay [1] has as its target Beta-lactamase (Salmonella choleraesuis (strain SC-B67), UniProt Q5J463). As to the kind of experiment: Epi-absorbance-based counterscreen for selective VIM-2 inhibitors: dose response biochemical high throughput screening assay to identify inhibitors of TEM-1 serine-beta-lactamase. (A counterscreen serves to expose hits that act by an unwanted route or on another target.)

Assay [2] addresses T1, Beta-lactamase (Pseudomonas aeruginosa, UniProt Q79MP6). Put plainly: inhibition of IMP-1 beta-lactamase activity – biochemical, epi-absorbance, selectivity assay for VIM-2 inhibitor project, dose response (AID 1920).
The target in assay [3] is T1, Beta-lactamase. As to the kind of experiment: […] counterscreen for selective VIM-2 inhibitors: dose response biochemical high throughput screening assay to identify inhibitors of IMP-1 metallo-beta-lactamase.
The target in assay [4] is T2, Voltage-gated N-type calcium channel alpha-1B subunit/Amyloid beta A4 precursor protein-binding family A member 1 (Homo sapiens, UniProt Q00975+Q02410). It is filed as protein assay.
T2 sequence (Q00975 whole entry): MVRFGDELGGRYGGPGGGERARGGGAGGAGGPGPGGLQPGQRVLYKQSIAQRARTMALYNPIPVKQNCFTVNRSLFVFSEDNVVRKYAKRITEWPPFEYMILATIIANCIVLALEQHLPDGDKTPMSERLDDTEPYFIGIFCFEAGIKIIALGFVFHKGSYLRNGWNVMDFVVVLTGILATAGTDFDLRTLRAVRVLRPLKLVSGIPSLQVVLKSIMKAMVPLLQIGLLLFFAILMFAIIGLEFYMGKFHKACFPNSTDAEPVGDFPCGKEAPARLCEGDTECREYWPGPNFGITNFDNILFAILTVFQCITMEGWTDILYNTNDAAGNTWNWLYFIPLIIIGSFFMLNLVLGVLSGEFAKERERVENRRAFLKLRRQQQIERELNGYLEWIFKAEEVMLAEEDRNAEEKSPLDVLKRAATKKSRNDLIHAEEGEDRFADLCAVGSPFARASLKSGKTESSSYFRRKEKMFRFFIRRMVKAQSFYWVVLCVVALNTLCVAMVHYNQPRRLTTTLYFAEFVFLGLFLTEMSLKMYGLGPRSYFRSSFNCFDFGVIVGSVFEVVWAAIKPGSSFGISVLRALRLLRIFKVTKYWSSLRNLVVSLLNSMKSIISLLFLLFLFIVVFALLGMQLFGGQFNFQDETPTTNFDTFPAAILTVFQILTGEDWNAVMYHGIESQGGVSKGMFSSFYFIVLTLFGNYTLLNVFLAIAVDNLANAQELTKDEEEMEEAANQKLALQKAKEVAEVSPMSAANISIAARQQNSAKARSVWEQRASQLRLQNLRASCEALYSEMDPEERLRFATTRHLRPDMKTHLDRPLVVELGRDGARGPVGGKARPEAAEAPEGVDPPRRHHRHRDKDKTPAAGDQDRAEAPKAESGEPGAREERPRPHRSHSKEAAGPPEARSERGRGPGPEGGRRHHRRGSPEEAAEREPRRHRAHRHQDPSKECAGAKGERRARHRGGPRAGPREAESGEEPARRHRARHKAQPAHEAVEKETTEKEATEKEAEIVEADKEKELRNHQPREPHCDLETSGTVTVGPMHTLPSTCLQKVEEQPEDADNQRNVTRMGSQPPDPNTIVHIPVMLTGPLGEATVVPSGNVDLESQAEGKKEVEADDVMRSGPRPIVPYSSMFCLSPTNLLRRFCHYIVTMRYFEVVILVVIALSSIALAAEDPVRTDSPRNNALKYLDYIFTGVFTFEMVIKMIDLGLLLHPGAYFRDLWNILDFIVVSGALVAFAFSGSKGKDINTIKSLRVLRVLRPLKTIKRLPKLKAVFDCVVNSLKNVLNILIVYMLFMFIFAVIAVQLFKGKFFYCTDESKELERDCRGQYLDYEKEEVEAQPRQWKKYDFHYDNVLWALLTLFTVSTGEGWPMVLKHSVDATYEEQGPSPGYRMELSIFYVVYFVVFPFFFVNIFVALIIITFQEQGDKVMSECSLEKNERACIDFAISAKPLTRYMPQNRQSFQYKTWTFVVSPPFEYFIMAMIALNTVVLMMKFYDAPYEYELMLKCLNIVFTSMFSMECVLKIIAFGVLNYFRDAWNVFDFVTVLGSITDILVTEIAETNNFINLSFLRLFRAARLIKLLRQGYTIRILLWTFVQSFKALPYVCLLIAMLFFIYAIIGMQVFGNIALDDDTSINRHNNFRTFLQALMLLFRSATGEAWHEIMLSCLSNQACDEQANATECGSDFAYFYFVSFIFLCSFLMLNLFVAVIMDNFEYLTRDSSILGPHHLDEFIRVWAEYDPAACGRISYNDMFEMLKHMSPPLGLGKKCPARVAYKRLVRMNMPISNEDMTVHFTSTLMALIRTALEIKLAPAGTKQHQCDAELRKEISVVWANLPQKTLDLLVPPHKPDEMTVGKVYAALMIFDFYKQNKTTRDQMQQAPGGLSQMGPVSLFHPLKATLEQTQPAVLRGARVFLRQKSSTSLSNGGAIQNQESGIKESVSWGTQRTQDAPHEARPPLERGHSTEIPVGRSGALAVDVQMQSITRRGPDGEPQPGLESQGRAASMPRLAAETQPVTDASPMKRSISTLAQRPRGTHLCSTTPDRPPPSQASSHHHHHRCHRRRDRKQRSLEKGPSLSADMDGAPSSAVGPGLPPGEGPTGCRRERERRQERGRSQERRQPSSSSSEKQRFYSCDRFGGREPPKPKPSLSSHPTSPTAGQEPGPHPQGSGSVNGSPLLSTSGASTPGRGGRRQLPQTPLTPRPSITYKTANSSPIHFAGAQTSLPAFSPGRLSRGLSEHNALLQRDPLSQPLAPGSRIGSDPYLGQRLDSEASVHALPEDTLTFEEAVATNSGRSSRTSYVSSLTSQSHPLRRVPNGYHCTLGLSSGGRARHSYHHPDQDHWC
T2 sequence (Q02410 whole entry): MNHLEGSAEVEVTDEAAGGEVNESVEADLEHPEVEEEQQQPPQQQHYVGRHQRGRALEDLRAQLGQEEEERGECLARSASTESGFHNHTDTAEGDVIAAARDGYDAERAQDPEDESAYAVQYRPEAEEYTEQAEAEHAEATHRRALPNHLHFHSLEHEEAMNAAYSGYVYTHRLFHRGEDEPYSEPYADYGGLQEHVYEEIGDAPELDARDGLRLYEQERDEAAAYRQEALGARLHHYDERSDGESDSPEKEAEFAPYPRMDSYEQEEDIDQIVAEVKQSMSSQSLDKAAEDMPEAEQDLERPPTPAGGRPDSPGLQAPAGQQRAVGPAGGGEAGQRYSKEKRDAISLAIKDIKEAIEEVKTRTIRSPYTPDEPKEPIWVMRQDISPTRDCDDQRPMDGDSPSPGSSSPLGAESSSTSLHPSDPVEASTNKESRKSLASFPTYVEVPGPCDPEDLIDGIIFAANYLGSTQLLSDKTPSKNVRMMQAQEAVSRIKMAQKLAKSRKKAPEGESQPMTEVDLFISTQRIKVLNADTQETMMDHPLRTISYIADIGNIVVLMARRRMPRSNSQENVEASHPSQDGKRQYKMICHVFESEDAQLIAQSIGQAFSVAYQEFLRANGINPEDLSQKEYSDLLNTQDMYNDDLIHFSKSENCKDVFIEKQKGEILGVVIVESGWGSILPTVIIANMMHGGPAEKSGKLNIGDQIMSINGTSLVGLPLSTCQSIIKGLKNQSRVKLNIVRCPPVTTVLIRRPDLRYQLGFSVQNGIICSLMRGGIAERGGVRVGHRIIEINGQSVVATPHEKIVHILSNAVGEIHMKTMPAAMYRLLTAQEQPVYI
Assay [5] addresses T2, Voltage-gated N-type calcium channel alpha-1B subunit/Amyloid beta A4 precursor protein-binding family A member 1. In kind it is protein assay. This is another data set of the same source.
Assay [6] deals with 26S proteasome non-ATPase regulatory subunit 14 (Homo sapiens, UniProt O00487). As to the kind of experiment: inhibition of proteasome subunit RPN11 – biochemical, fluorescence polarization, uHTS hits, confirmation (AID 602368). It is filed as functional.
The target in assay [7] is 72 kDa type IV collagenase (Homo sapiens, UniProt P08253). Put plainly: Dose Response validation of uHTS RPN11 inhibitor hits using a MMP-2 Fluorescence assay. It is filed as functional.
The target in another assay is Prothrombin (Bos taurus, UniProt P00735). Put plainly: thrombin protease inhibitors – biochemical, fluorescence polarization, uHTS hits, dose response (AID 602369). In kind it is functional. For orientation: In fluorescence polarisation assays a small probe gives low polarisation when free and higher when bound to something large.
The target of assay [8] is Arf-GAP with SH3 domain, ANK repeat and PH domain-containing protein 1 (Homo sapiens, UniProt Q9ULH1). It is filed as functional.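 Also: biochemical fluorescence polarization dose–response screen measuring inhibition of ASAP1; ASAP1 GAP domain stimulating GTP hydrolysis by truncated human ARF1.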
Chain of Arf-GAP with SH3 domain, ANK repeat and PH domain-containing protein 1 (Q9ULH1 whole entry, the tested form may be a part): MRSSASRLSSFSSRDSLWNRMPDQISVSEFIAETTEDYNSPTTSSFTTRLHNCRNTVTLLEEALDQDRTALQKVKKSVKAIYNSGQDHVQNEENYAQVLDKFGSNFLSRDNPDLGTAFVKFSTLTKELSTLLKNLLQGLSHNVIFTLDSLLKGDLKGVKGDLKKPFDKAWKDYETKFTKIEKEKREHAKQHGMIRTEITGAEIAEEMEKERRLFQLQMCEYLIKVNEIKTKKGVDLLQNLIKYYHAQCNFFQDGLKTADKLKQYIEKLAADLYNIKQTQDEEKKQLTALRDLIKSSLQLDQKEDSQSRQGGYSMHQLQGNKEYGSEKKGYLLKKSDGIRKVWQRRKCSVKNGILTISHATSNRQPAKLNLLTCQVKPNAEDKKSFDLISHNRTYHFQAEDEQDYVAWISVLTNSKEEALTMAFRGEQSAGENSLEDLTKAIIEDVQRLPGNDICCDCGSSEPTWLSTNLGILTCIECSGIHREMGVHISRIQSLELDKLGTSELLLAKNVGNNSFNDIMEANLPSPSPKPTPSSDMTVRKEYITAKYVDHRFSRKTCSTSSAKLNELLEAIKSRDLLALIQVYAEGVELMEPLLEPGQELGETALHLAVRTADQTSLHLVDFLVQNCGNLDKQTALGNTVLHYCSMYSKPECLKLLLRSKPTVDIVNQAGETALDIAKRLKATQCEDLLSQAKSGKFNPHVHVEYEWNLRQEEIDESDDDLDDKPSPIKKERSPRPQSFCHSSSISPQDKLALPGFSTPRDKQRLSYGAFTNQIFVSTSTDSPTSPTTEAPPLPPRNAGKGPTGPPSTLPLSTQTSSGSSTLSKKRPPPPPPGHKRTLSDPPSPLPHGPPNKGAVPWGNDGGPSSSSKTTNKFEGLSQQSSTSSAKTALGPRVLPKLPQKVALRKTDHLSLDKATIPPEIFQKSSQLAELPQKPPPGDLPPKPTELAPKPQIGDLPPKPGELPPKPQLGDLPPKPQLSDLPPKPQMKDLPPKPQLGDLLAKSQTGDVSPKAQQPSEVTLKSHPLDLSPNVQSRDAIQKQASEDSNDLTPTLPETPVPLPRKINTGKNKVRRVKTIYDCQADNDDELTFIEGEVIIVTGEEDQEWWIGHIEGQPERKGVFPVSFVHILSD
Assay [9] addresses T3, Carboxy-terminal domain RNA polymerase II polypeptide A small phosphatase 1 (Homo sapiens, UniProt Q9GZU7).
T3 sequence (Q9GZU7 whole entry): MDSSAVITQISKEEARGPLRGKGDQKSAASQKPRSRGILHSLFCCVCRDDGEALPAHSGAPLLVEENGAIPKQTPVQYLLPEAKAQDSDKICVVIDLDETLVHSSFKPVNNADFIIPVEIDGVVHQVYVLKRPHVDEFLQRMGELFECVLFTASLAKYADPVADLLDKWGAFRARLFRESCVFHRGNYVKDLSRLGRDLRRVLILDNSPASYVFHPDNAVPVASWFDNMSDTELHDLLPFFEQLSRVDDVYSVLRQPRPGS
As to the kind of experiment: CTDSP1 inhibitors, concentration-response, biochemical, absorbance readout, ultra-high-throughput screen actives (AID 540297). It is filed as functional.

Assay [10] can be described thus: cells. It is filed as functional, cell-based.
Assay [11] in a line: cells. In kind it is functional, cell-based. This is another data set of the same source.
Assay [12] concerns the target Fructose-bisphosphate aldolase (Mycobacterium tuberculosis, UniProt P9WQA3). As to the kind of experiment: Fluorescence-based biochemical high throughput dose response assay for inhibitors of the fructose-bisphosphate aldolase (FBA) of M. tuberculosis. It is filed as functional.

T1 sequence (Q79MP6 whole entry): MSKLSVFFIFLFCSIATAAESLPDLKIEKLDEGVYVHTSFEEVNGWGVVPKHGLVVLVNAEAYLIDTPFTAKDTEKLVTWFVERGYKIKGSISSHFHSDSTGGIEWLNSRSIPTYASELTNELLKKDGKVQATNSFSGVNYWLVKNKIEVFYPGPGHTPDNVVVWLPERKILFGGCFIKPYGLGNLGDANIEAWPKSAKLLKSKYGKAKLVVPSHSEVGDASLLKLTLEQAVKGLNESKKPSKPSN
Chain of Beta-lactamase (Salmonella choleraesuis (strain SC-B67), UniProt Q5J463) (Q5J463 whole entry): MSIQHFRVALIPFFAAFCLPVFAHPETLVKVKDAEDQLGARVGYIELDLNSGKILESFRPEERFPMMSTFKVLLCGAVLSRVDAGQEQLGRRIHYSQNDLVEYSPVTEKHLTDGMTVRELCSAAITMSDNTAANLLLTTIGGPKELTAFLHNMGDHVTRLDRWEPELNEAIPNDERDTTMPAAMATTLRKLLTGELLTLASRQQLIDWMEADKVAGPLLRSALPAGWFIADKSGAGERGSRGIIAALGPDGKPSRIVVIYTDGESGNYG

As for `CC(C)Cn1c(S)nnc1-c1ccco1`, the IC50 at Beta-lactamase [1], at Beta-lactamase [2] and at Beta-lactamase [3] was > 59.6 µM (inactive) in each case.
Regarding `COC(=O)c1ccc(NC(=O)c2ccc(NC(=O)c3ccco3)cc2)cc1`, the 50% inhibitory concentration (IC50) in [4] is 5.25 µM (active); in assay [5], > 50 µM (inactive); in [6], 23 µM (active); in assay [7] it was > 100 µM (inactive); at Prothrombin, 73 µM (active); in assay [8] it was 25.8 µM (inactive).
As to `Cc1ccc(C(=O)Nc2cccc(NC(=O)c3ccc(C)c([N+](=O)[O-])c3)n2)cc1[N+](=O)[O-]`, the IC50 is 4.55 µM (active) in assay [9] and 41.9 µM (inactive) in assay [8].
On to `CCCCn1c(=O)[nH]c(=O)c2c(C(=O)OCC)cc(-c3cccs3)nc21`, for which the EC50 in the assay “cells [10]” and in the assay “cells [11]” was > 350 µM (not active) throughout. Also, in assay [12], the IC50 was 0.582 µM (active).
Take `Cc1nn(CCc2nnc(S)n2-c2cccc(Cl)c2)c(C)c1[N+](=O)[O-]`: the IC50 at Beta-lactamase [1], on Beta-lactamase [2] and on Beta-lactamase [3] was > 59.6 µM (inactive) in each case.

One may read the IC50 as the midpoint of a concentration-inhibition curve. One may read the EC50 as the concentration needed to bring the measured effect to its halfway point.
